# Results: publication PMC8062000, “High-throughput screening of the ReFRAME, Pandemic Box, and COVID Box drug repurposing libraries against SARS-CoV-2 nsp15 endoribonuclease to identify small-molecule inhibitors of viral activity” (PLoS ONE, 2021)
# Several values for one entry are separate records, joined by “and”; a condition that tells them apart may be missing. Equal values may be shown once. Read-outs that look alike come from different tables or passages of the source.
# Assays:
# [1] = biological target: T1, SARS-CoV-2 nsp15 endoribonuclease (endoU) (Severe acute respiratory syndrome coronavirus 2, UniProt P0DTD1); assay: biochemical; type: biochemical; settings: for inhibition at 10 µM: read-out: 1° FRET Assay % inhibition
# [2] = Amplex Red redox-cycling counter screen (H2O2 generation with DTT); settings: 1 mM DTT; compared with redox-cycling reference DA-3003-1
# SARS-CoV-2 nsp15 [3] = biological target: T2, SARS-CoV-2 nsp15 (Severe acute respiratory syndrome coronavirus 2, UniProt P0DTD1); type: binding
# [4] = Cytotoxicity in Vero 76 cells (CPE assay toxicity wells); settings: African green monkey
# [5] = 100 mg/kg oral dose, Sprague-Dawley rats, no reference given, cited from earlier work
# [6] = Mammalian cytotoxicity assay, HepG2; settings: human, HepG2 hepatocyte cells
# [7] = biological target: T1, SARS-CoV-2 nsp15 endoribonuclease (endoU); assay: biochemical; settings: 0.78 μM nsp15, 500 ng poly(rA) substrate, 2 h; n = 3; read-out: RNA Cleavage Assay IC50
# SARS-CoV-2 nsp15 [8] = biological target: T2, SARS-CoV-2 nsp15; assay: Native MS (CID/SID) ligand binding to nsp15
# Description: In native MS, nsp15 was electrosprayed from non-denaturing ammonium acetate solution in the presence of an inhibitor. Inhibitor binding can be evaluated by monitoring the increase in mass of the inhibitor-nsp15 complex compared to the apo (protein with no ligand) nsp15 protein. […] Collision-induced dissociation (CID), widely available in commercial mass spectrometers, involves acceleration of protein ions into a pressurized collision cell. Upon CID, the internal energy of the protein increases from multiple collisions with neutral gas molecules.
# By increasing the acceleration voltage to 120V, CID and SID of the nsp15 hexamer both released primarily monomeric species (Fig 6B and 6C), with SID resulting in lower charged monomers and additional dimers/trimers. […] The peak cluster centered at 41.2 kDa is the apo protein (sequence mass and salt adducts).
# Recombinant nsp15 was buffer exchanged into 100 mM ammonium acetate (pH adjusted to 7.5 using ammonium hydroxide) using size exclusion spin columns (Zeba Micro Spin Desalting Columns, 7k MWCO, 75 μL) following manufacturer’s protocol. The protein solution was then diluted to 5 μM, supplemented with 10 μM Mn(II) acetate, and mixed with ligands at desired concentrations. […]
# SARS-CoV-2 [9] = assay: microbe, parasite or virus in culture; type: cell-based; settings: for protection against viral CPE: Vero 76
# [10] = mice, 100 mg/kg per day for 6 months ref 37; cited from earlier work
# [11] = Cytotoxicity in Caco-2 cells; settings: human
# [12] = Cell viability in Calu-3 cells (cell number per well); settings: human, CC50, Calu-3, 48 h
# [13] = Mammalian cytotoxicity assay, CRL-8155; settings: human, CRL-8155 lymphocyte cells
# SARS-CoV-2 [14] = assay: microbe, parasite or virus in culture; type: cell-based; settings: Severe acute respiratory syndrome coronavirus 2, read-out: EC90 (concentration that reduces viral replication by 90%); Caco-2, microscopic observation
# [15] = system: SARS-CoV-2 (isolate USA WA1/2020); assay: microbe, parasite or virus in culture; type: cell-based; settings: Severe acute respiratory syndrome coronavirus 2; Calu-3, MOI = 0.5, 48 h, immunostaining; read-out: EC50 (infection)
# [16] = Solubility observation in DMSO and assay buffer; settings: diluted in assay buffer
# SARS-CoV-2 [17] = system: SARS-CoV-2; design: method as in PMID 33564093; settings: at 50 μM concentrations ref 15; cited from earlier work
# [18] = primary screen at 10 μM, 25 nM nsp15, 0.5 μM substrate, 1 h
smiles,measurement,setting,value
Cc1cc(N)c2cc(NC(=O)Nc3ccc4nc(C)cc(N)c4c3)ccc2n1 [Aminoquinuride],inhibition at 10 µM,[1],95%
O=C1C(NC2CCCCCCC2)=CC(=O)c2ncccc21 [Azaquinone],inhibition at 10 µM,[1]; [18],80%
same,Amplex Red Assay % Activity (redox cycling),[2],>100%
same,DSF Assay ΔTm,SARS-CoV-2 nsp15 [3],-11.4 °C
same,nsp15 Tm lowered by,SARS-CoV-2 nsp15 [3],more than 10 °C
Cc1nc2c(s1)C(=O)C=C(NCCN(C)C)C2=O [BN-82685],inhibition at 10 µM,[1]; [18],76%
same,Amplex Red Assay % Activity (redox cycling),[2],>100%
same,DSF Assay ΔTm,SARS-CoV-2 nsp15 [3],-11.3 °C
same,nsp15 Tm lowered by,SARS-CoV-2 nsp15 [3],more than 10 °C
CC1(C)C(=O)N=C2C1=C(O)C(=O)c1ccccc12 [BVT-948],1° FRET Assay % inhibition,[1],90%
same,IC50,[1]; read-out: 2° FRET Assay IC50,4.96 µM
same,IC50,[1]; read-out: 3° FRET Assay IC50,0.1 µM
same,DSF Assay ΔTm,SARS-CoV-2 nsp15 [3],-11.8 °C
same,nsp15 Tm lowered by,SARS-CoV-2 nsp15 [3],more than 10 °C
CC(=O)[C@]1(O)Cc2c(O)c3c(c(O)c2[C@@H](O[C@H]2C[C@H](N)[C@H](O)[C@H](C)O2)C1)C(=O)c1c(O)cccc1C3=O [Carubicin],inhibition at 10 µM,[1],56%
CC(C)(O/N=C(\C(=O)N[C@@H]1C(=O)N2C(C(=O)[O-])=C(C[n+]3ccccc3)CS[C@H]12)c1csc(N)n1)C(=O)O [Ceftazidime],IC50,[1]; 2° FRET Assay IC50,> 10 µM
same,IC50,[1]; 3° FRET Assay IC50,72 µM
same,inhibition at 10 µM,[1]; [18],66%
COc1cccc2c1C(=O)c1c(O)c3c(c(O)c1C2=O)C[C@@](O)(C(=O)CO)C[C@@H]3O[C@H]1C[C@H](N)[C@H](O)[C@H](C)O1 [Doxorubicin],IC50,[1]; 2° FRET Assay IC50,7.46 µM
same,IC50,[1]; 3° FRET Assay IC50,9.29 µM
O=C(Nc1ccc(O)c(O)c1)c1cccc(O)c1O [Exebryl-1],CC50 at 5 days,"[4]; CC50, Vero 76, microscopic observation",52 µM
same,CC50 at 5 days,"[4]; CC50, Vero 76 cell growth, neutral red staining",57 µM
same,plasma concentration,[5]; at 1 h,9 µM
same,plasma levels,[5]; by 4 h after dosing,below 4 μM
same,CC50 at 48 h,[6],> 200 µM
same,IC50,[7],9.27 µM
same,Kd,SARS-CoV-2 nsp15 [8],~12 µM
same,EC50,"SARS-CoV-2 [9]; Severe acute respiratory syndrome coronavirus 2, Vero 76, read-out: EC50 (concentration that reduces CPE by 50%)",10 µM
same,EC50,"SARS-CoV-2 [9]; Severe acute respiratory syndrome coronavirus 2, Vero 76, neutral red staining, read-out: EC50 (CPE)",16 µM
same,antiviral activity,"SARS-CoV-2 [9]; summary across Vero 76, Caco-2, and Calu-3 cells",10 to 66 µM
same,toxicity,[10],without evident toxicity
same,CC50,[11],61 µM
same,CC50 at 48 h,[12],> 200 µM
same,CC50 at 48 h,[13],37.8 µM
same,EC90,SARS-CoV-2 [14],51 µM
same,inhibition at 10 µM,[1]; [18],57%
same,EC50,[15],65.6 µM
same,DSF Assay ΔTm,SARS-CoV-2 nsp15 [3],0.1 °C
CCc1ccccc1NC(=O)Oc1ccc2c(c1)[C@]1(C)CCN(C)O[C@@H]1N2C [Ganstigmine],inhibition at 10 µM,[1],51%
O=C(Nc1cccc(C2=NCCN2)c1)c1ccc(-c2ccc(C(=O)Nc3cccc(C4=NCCN4)c3)cc2)cc1 [MMV1580853],solubility,[16],poor solubility
same,CC50 at 48 h,[6],> 80 µM
same,binding detected on CID- or SID-released monomers,"SARS-CoV-2 nsp15 [8]; ~10 μM compound, 5 μM nsp15",too weak to be detected
same,protection against viral CPE,SARS-CoV-2 [9],Neither Piroxantrone nor MMV1580853 exhibited protection against viral CPE
same,CC50 at 48 h,[13],> 80 µM
same,inhibition at 10 µM,[1]; [18],62%
same,Amplex Red Assay % Activity (redox cycling),[2],< 25%
same,DSF Assay ΔTm,SARS-CoV-2 nsp15 [3],0.1 °C
C/C1=C2/[N-][C@H]([C@H](CC(N)=O)[C@@]2(C)CCC(=O)NC[C@@H](C)OP(=O)([O-])O[C@H]2[C@@H](O)[C@@H](n3cnc4cc(C)c(C)cc43)O[C@@H]2CO)[C@]2(C)N=C(/C(C)=C3N=C(/C=C4N=C1[C@@H](CCC(N)=O)C\4(C)C)[C@@H](CCC(N)=O)[C@]\3(C)CC(N)=O)[C@@H](CCC(N)=O)[C@]2(C)CC(N)=O.[CH3-].[Co+3] [Mecobalamin],1° FRET Assay % inhibition,[1]; [18],58%
same,IC50,"[1]; secondary dose response, 8-point 3-fold, top concentration 10 μM, read-out: 2° FRET Assay IC50",3.34 µM
same,IC50,"[1]; tertiary dose response, expanded concentration range, read-out: 3° FRET Assay IC50",18.3 µM
same,DSF Assay ΔTm,SARS-CoV-2 nsp15 [3],-3.4 °C
C[C@@H]1CNS(=O)(=O)N(c2ccc3c(C#N)nccc3c2)C1 [PF-06260414],1° FRET Assay % inhibition,[1],74%
same,IC50,[1]; read-out: 2° FRET Assay IC50,7.69 µM
same,IC50,[1]; read-out: 3° FRET Assay IC50,> 80 µM
NCCCNc1ccc2c3c(nn2CCNCCO)-c2c(O)ccc(O)c2C(=O)c13 [Piroxantrone],CC50 at 48 h,[6],33.9 µM
same,protection against viral CPE,SARS-CoV-2 [9],Neither Piroxantrone nor MMV1580853 exhibited protection against viral CPE
same,CC50 at 48 h,[13],< 1.25 µM
same,inhibition at 10 µM,[1]; [18],74%
same,DSF Assay ΔTm,SARS-CoV-2 nsp15 [3],-1.1 °C
COC1=C(N)C(=O)c2nc(-c3nc(C(=O)O)c(C)c(-c4ccc(OC)c(OC)c4O)c3N)ccc2C1=O [Streptonigrin],3° FRET Assay IC50,[1],sub-micromolar
same,IC50,[1]; 2° FRET Assay IC50,4.25 µM
same,IC50,[1]; 3° FRET Assay IC50,0.29 µM
same,inhibition at 10 µM,[1],89%
same,Amplex Red Assay % Activity (redox cycling),[2],>100%
same,DSF Assay ΔTm,SARS-CoV-2 nsp15 [3],-11.5 °C
same,nsp15 Tm lowered by,SARS-CoV-2 nsp15 [3],more than 10 °C
O=C1NC(=O)/C(=C\c2ccccc2)C2=C1CCCC2 [Tesimide],inhibition at 10 µM,[1]; [18],82%
same,DSF Assay ΔTm,SARS-CoV-2 nsp15 [3],-11.7 °C
same,nsp15 Tm lowered by,SARS-CoV-2 nsp15 [3],more than 10 °C
Cc1cc(-c2ccc(/N=N/c3c(S(=O)(=O)O)cc4cc(S(=O)(=O)O)cc(N)c4c3O)c(C)c2)ccc1/N=N/c1c(S(=O)(=O)O)cc2cc(S(=O)(=O)O)cc(N)c2c1O [Trypan Blue],IC50,[1]; 2° FRET Assay IC50,5.08 µM and 7.78 µM
same,1° FRET Assay % inhibition,[1]; [18],51%
same,inhibition at 10 µM,[1]; [18],58%
COc1cccc2c1C(=O)c1c(O)c3c(c(O)c1C2=O)C[C@@](O)(C(=O)CO)C[C@@H]3O[C@H]1C[C@H](N)[C@H](O[C@@H]2CCCCO2)[C@H](C)O1 [pirarubicin],IC50,[1]; 2° FRET Assay IC50,3.78 µM
same,IC50,[1]; 3° FRET Assay IC50,5.98 µM
same,inhibition at 10 µM,[1],66%
same,DSF Assay ΔTm,SARS-CoV-2 nsp15 [3],0.4 °C
N=C1CCCN1Cc1nc(O)nc(O)c1Cl [tipiracil],antiviral activity,SARS-CoV-2 [17],only minimal antiviral activity
CC(=O)O[C@H]1C[C@@H]2CC[C@@H]3[C@H](CC[C@@]4(C)[C@H]3C[C@H]([N+]3(C)CCCCC3)[C@@H]4OC(C)=O)[C@@]2(C)C[C@@H]1N1CCCCC1 [vecuronium bromide],inhibition at 10 µM,[1],61%
CC1(C)CCC2=C(O1)c1ccccc1C(=O)C2=O [β-Lapachone],3° FRET Assay IC50,[1],sub-micromolar
same,IC50,[1]; 2° FRET Assay IC50,2.78 µM
same,IC50,[1]; 3° FRET Assay IC50,0.31 µM
same,inhibition at 10 µM,[1],73%
same,Amplex Red Assay % Activity (redox cycling),[2],>100%
same,DSF Assay ΔTm,SARS-CoV-2 nsp15 [3],-11.5 °C
same,nsp15 Tm lowered by,"SARS-CoV-2 nsp15 [3]; negative Tm shift, 100 μM ligand",more than 10 °C
